Measured values published in publication PMC6792352, “Limited Chemical Structural Diversity Found to Modulate Thyroid Hormone Receptor in the Tox21 Chemical Library” (Environmental Health Perspectives, 2019).
Where a name gives a salt, the structure may show the parent alone.

Assay: in vitro
Conditions: rat, gh3-tre-luc cells, AC50 (uM) modified / 1000

With `O=C1c2ccccc2C(=O)N1CCl` [2-(Chloromethyl)-1H-isoindole-1,3(2H)-dione] as the compound, how does the CC50 at 24 h read?
The CC50 at 24 h was > 90 µM.

With `O=C1OC(OC(=O)c2cccnc2Nc2cccc(C(F)(F)F)c2)c2ccccc21` (stereo not shown) [Talniflumate] as the compound, how does the CC50 at 24 h read?
Its CC50 at 24 h is > 50 µM.

For `CC(C)C[C@@H]1NC(=O)[C@H](CCCN)NC(=O)[C@H](C(C)C)NC(=O)[C@H](Cc2ccc(O)cc2)N[C@@H](CCC(=O)O)C(=O)N[C@@H](CC(N)=O)C(=O)[C@@H](Cc2ccccc2)NC(=O)[C@H](Cc2ccccc2)NC(=O)[C@@H]2CCCN2C(=O)[C@@H](Cc2ccccc2)NC1=O` [Tyrothricin], which CC50 at 24 h is on record?
Its CC50 at 24 h is 1.25 µM.

With `CC1=C(C/C=C(\C)CCC[C@H](C)CCC[C@H](C)CCCC(C)C)C(=O)c2ccccc2C1=O` [Phytonadione] as the compound, how does the CC50 at 24 h read?
Its CC50 at 24 h is > 50 µM.

With `Cc1c(-c2ccccc2)oc2c(C(=O)OCCN3CCCCC3)cccc2c1=O` [Flavoxate hydrochloride] as the compound, how does the CC50 at 24 h read?
Its CC50 at 24 h is > 20 µM.

Which CC50 at 24 h does the source give for `CCCCCC[C@@H](O)C/C=C\CCCCCCCC(=O)O` [(9Z,12R)-12-Hydroxyoctadec-9-enoic acid] here?
The CC50 at 24 h was 80.8 µM.

Which CC50 at 24 h does the source give for `CCO[Si](CCCCl)(OCC)OCC` [(3-Chloropropyl)(triethoxy)silane] here?
Its CC50 at 24 h is > 90 µM.

With `Cc1nnc2n1-c1sc(CCc3ccc(CC(C)C)cc3)cc1C(c1ccccc1Cl)=NC2C` (stereo not shown) [Israpafant] as the compound, how does the CC50 at 24 h read?
Its CC50 at 24 h is 13.6 µM.

For `CCCCCCCCCCCCCCCCCC(=O)O` [Triethanolamine stearate], which CC50 at 24 h is on record?
The CC50 at 24 h was > 90 µM.

With `CO[C@@]1(NC(=O)CSC(F)F)C(=O)N2C(C(=O)O)=C(CSc3nnnn3CCO)CO[C@@H]21` [Flomoxef] as the compound, how does the CC50 at 24 h read?
Its CC50 at 24 h is > 50 µM.

With `O=C1NC(=O)C(c2ccccc2)(c2ccccc2)N1` [5,5-Diphenylhydantoin] as the compound, how does the CC50 at 24 h read?
Its CC50 at 24 h is > 90 µM.

For `OCCN(CCO)CCN(CCO)CCO` [2,2',2'',2'''-(1,2-Ethanediyldinitrilo)tetrakisethanol], which CC50 at 24 h is on record?
The CC50 at 24 h was > 90 µM.

For `CN=C=O` [Methyl isocyanate], which CC50 at 24 h is on record?
Its CC50 at 24 h is > 90 µM.

For `CCCCC1C(=O)N(c2ccccc2)N(c2ccc(O)cc2)C1=O` (stereo not shown) [Oxyphenbutazone], which CC50 at 24 h is on record?
Its CC50 at 24 h is 3.72 µM.

With `CC[N+](CC)(CCNC(=O)C(=O)NCC[N+](CC)(CC)Cc1ccccc1Cl)Cc1ccccc1Cl` [Ambenonium chloride] as the compound, how does the CC50 at 24 h read?
The CC50 at 24 h was > 50 µM.

With `O=[N+]([O-])c1cccc(I)c1` [1-Iodo-3-nitrobenzene] as the compound, how does the CC50 at 24 h read?
Its CC50 at 24 h is > 90 µM.

With `C=C(C)C(=O)OCCC[Si](Cl)(Cl)Cl` [3-(Trichlorosilyl)propyl methacrylate] as the compound, how does the CC50 at 24 h read?
The CC50 at 24 h was > 90 µM.

With `c1ccc2c(c1)ccc1c3ccccc3ccc21` [Chrysene] as the compound, how does the CC50 at 24 h read?
The CC50 at 24 h was > 40 µM.

With `CCCc1nc2c(C)cc(-c3nc4ccccc4n3C)cc2n1Cc1ccc(-c2ccccc2C(=O)O)cc1` [Telmisartan] as the compound, how does the CC50 at 24 h read?
The CC50 at 24 h was > 50 µM.

For `Cc1ccnc(NS(=O)(=O)c2ccc(N)cc2)n1` [Sulfamerazine], which CC50 at 24 h is on record?
The CC50 at 24 h was > 20 µM.

Which CC50 at 24 h does the source give for `COC(=O)[C@H]1[C@H]2C[C@@H]3c4[nH]c5cc(OC)ccc5c4CCN3C[C@H]2C[C@@H](OC(=O)/C=C/c2cc(OC)c(OC)c(OC)c2)[C@@H]1OC` [Rescinnamine] here?
Its CC50 at 24 h is > 20 µM.

For `CC(O)CN` (stereo not shown) [1-Amino-2-propanol], which CC50 at 24 h is on record?
Its CC50 at 24 h is > 90 µM.

For `N#Cc1c[nH]cc1-c1cccc2c1OC(F)(F)O2` [Fludioxonil], which CC50 at 24 h is on record?
The CC50 at 24 h was 35.9 µM.

Which CC50 at 24 h does the source give for `CCCCCCC1CCCC(=O)O1` (stereo not shown) [Undecanoic delta-lactone] here?
The CC50 at 24 h was > 90 µM.

With `CC/C=C\CC/C=C/C=O` [trans-2,cis-6-Nonadienal] as the compound, how does the CC50 at 24 h read?
Its CC50 at 24 h is > 90 µM.

Which CC50 at 24 h does the source give for `C=CC(=O)NC(C)(C)CS(=O)(=O)O` [2-Acrylamido-2-methyl-1-propanesulfonic acid] here?
The CC50 at 24 h was > 90 µM.

With `O=C1CC[C@@H](C(=O)N[C@H]2C[C@@H]2c2ccccc2)N1` [Rolicyprine] as the compound, how does the CC50 at 24 h read?
The CC50 at 24 h was > 50 µM.

For `Sc1ncnc2nc[nH]c12` [6-Mercaptopurine monohydrate], which CC50 at 24 h is on record?
Its CC50 at 24 h is > 90 µM.

Which CC50 at 24 h does the source give for `CCN(CC)CCOCCOC(=O)C1(c2ccccc2)CCCC1` [Carbetapentane] here?
The CC50 at 24 h was > 50 µM.

With `CCCCCCC(=O)O[C@H]1CC[C@H]2[C@@H]3CCc4cc(O)ccc4[C@H]3CC[C@]12C` [Estradiol enanthate] as the compound, how does the CC50 at 24 h read?
Its CC50 at 24 h is > 50 µM.

With `CC(=O)OC(C)(C)Cc1ccccc1` [Dimethylbenzylcarbinyl acetate] as the compound, how does the CC50 at 24 h read?
Its CC50 at 24 h is > 90 µM.

With `CC(C)C=O` [2-Methylpropanal] as the compound, how does the CC50 at 24 h read?
The CC50 at 24 h was > 90 µM.

Which CC50 at 24 h does the source give for `CCCCCCCCCCCCCCCCCC(=O)OCC(CC)CCCC` (stereo not shown) [2-Ethylhexyl octadecanoate] here?
The CC50 at 24 h was > 90 µM.

For `CN(C)C(=O)C(c1ccccc1)c1ccccc1` [Diphenamid], which CC50 at 24 h is on record?
The CC50 at 24 h was > 90 µM.

For `C=COCCOCCOC=C` [{2-[2-(Ethenyloxy)ethoxy]ethoxy}ethene], which CC50 at 24 h is on record?
Its CC50 at 24 h is > 90 µM.

Which CC50 at 24 h does the source give for `Clc1ccc(C2(Cn3cncn3)CC(Br)CO2)c(Cl)c1` (stereo not shown) [Bromuconazole] here?
Its CC50 at 24 h is > 90 µM.

With `O=[N+]([O-])c1ccc(Cl)cc1Cl` [2,4-Dichloronitrobenzene] as the compound, how does the CC50 at 24 h read?
The CC50 at 24 h was > 90 µM.

For `CC(=O)[C@]1(O)Cc2c(O)c3c(c(O)c2[C@@H](O[C@H]2C[C@H](N)[C@H](O)[C@H](C)O2)C1)C(=O)c1ccccc1C3=O` [Idarubicin hydrochloride], which CC50 at 24 h is on record?
The CC50 at 24 h was 0.162 µM.

With `CC1CCCC1` [Methylcyclopentane] as the compound, how does the CC50 at 24 h read?
Its CC50 at 24 h is > 90 µM.

With `CNCC(O)c1ccc(OC(=O)C(C)(C)C)c(OC(=O)C(C)(C)C)c1` (stereo not shown) [Dipivefrin hydrochloride] as the compound, how does the CC50 at 24 h read?
The CC50 at 24 h was 10.3 µM.

With `Oc1c(Cl)ccc(Cl)c1Cl` [2,3,6-Trichlorophenol] as the compound, how does the CC50 at 24 h read?
The CC50 at 24 h was > 90 µM.

Which CC50 at 24 h does the source give for `CCCCCCCCCCCC(C)=O` [2-Tridecanone] here?
Its CC50 at 24 h is > 90 µM.

Which CC50 at 24 h does the source give for `C=CC(=O)OCCC(=O)O` [2-Carboxyethyl acrylate] here?
Its CC50 at 24 h is > 100 µM.

Which CC50 at 24 h does the source give for `Cc1scc2c1N(C(=O)CN1CCN(C)CC1)c1ccccc1NC2=O` [Telenzepine] here?
The CC50 at 24 h was > 50 µM.

Which CC50 at 24 h does the source give for `C1CCCC1` [Cyclopentane] here?
The CC50 at 24 h was > 90 µM.

For `N#Cc1ccccc1O` [2-Hydroxybenzonitrile], which CC50 at 24 h is on record?
Its CC50 at 24 h is > 90 µM.

For `CCCCCCCCCCCCCCCCO` [1-Hexadecanol], which CC50 at 24 h is on record?
The CC50 at 24 h was > 90 µM.

With `CCOC(=O)c1ccc(N(C)C)cc1` [Parbenate] as the compound, how does the CC50 at 24 h read?
Its CC50 at 24 h is > 90 µM.

With `CC1(C)OC[C@@H]2O[C@@]3(C(=O)O)OC(C)(C)O[C@H]3[C@@H]2O1` [Dikegulac] as the compound, how does the CC50 at 24 h read?
Its CC50 at 24 h is > 90 µM.

With `O=C(O)COCC(=O)O` [Diglycolic acid] as the compound, how does the CC50 at 24 h read?
The CC50 at 24 h was > 90 µM.

For `CCCc1cc(=O)[nH]c(=S)[nH]1` [6-Propyl-2-thiouracil], which CC50 at 24 h is on record?
Its CC50 at 24 h is > 90 µM.

Which CC50 at 24 h does the source give for `CC(=O)CCc1ccc(O)cc1` [4-(4-Hydroxyphenyl)butan-2-one] here?
The CC50 at 24 h was > 90 µM.

Which CC50 at 24 h does the source give for `CC(=O)OC1CN2CCC1CC2` (stereo not shown) [Aceclidine] here?
The CC50 at 24 h was > 50 µM.

For `CCCCNC(=O)NS(=O)(=O)c1ccc(C)cc1` [Tolbutamide], which CC50 at 24 h is on record?
The CC50 at 24 h was > 90 µM.

With `Cc1cccc(NC(=S)N(C)C)c1` [Methiuron] as the compound, how does the CC50 at 24 h read?
The CC50 at 24 h was > 90 µM.

Same assay, conditions: rat, gh3-tre-luc cells, AC50 (uM) modified / 1000, Tox21_110001=Tox21_111132; viability, 1 nM T3 present, 24 h

For `C[C@H]1CC[C@@H]2[C@@H](C)[C@H]3[C@H](C[C@H]4[C@@H]5CC=C6C[C@@H](O[C@@H]7O[C@H](CO)[C@H](O)[C@H](O[C@@H]8O[C@H](CO)[C@@H](O)[C@H](O)[C@H]8O)[C@H]7O[C@@H]7O[C@@H](C)[C@H](O)[C@@H](O)[C@H]7O)CC[C@]6(C)[C@H]5CC[C@]34C)N2C1` [alpha-Solanine], which CC50 at 24 h is on record?
The CC50 at 24 h was 17.5 µM.

Same assay, conditions: rat, gh3-tre-luc cells, AC50 (uM) modified / 1000, Tox21_110001=Tox21_200104; viability, 1 nM T3 present, 24 h

With `C[C@H]1CC[C@@H]2[C@@H](C)[C@H]3[C@H](C[C@H]4[C@@H]5CC=C6C[C@@H](O[C@@H]7O[C@H](CO)[C@H](O)[C@H](O[C@@H]8O[C@H](CO)[C@@H](O)[C@H](O)[C@H]8O)[C@H]7O[C@@H]7O[C@@H](C)[C@H](O)[C@@H](O)[C@H]7O)CC[C@]6(C)[C@H]5CC[C@]34C)N2C1` [alpha-Solanine] as the compound, how does the CC50 at 24 h read?
Its CC50 at 24 h is 16.1 µM.

Same assay, conditions: rat, gh3-tre-luc cells, AC50 (uM) modified / 1000, Tox21_110001=Tox21_300608; viability, 1 nM T3 present, 24 h

With `O=C(O)C(F)(F)C(F)(F)C(F)(F)C(F)(F)C(F)(F)C(F)(F)C(F)(F)C(F)(F)C(F)(F)F` [Perfluorodecanoic acid] as the compound, how does the CC50 at 24 h read?
The CC50 at 24 h was > 90 µM.

Same assay, conditions: rat, gh3-tre-luc cells, AC50 (uM) modified / 1000, Tox21_110001=Tox21_300736; viability, 1 nM T3 present, 24 h

For `CNC(=S)S` [Metam-sodium hydrate], which CC50 at 24 h is on record?
The CC50 at 24 h was > 90 µM.

Same assay, conditions: rat, gh3-tre-luc cells, AC50 (uM) modified / 1000, Tox21_110001=Tox21_301206; viability, 1 nM T3 present, 24 h

For `COP(=S)(NC(C)C)Oc1ccc(C)cc1[N+](=O)[O-]` (stereo not shown) [Amiprofos-methyl], which CC50 at 24 h is on record?
Its CC50 at 24 h is > 90 µM.

Same assay, conditions: rat, gh3-tre-luc cells, AC50 (uM) modified / 1000, Tox21_110001=Tox21_301527; viability, 1 nM T3 present, 24 h

For `C=C[Si]1(C)O[Si](C)(C=C)O[Si](C)(C=C)O[Si](C)(C=C)O1` (stereo not shown) [1,3,5,7-Tetramethyl-1,3,5,7-tetravinylcyclotetrasiloxane], which CC50 at 24 h is on record?
The CC50 at 24 h was > 90 µM.
